According to ChEMBL document CHEMBL4020850, “Discovery of LSZ102, a Potent, Orally Bioavailable Selective Estrogen Receptor Degrader (SERD) for the Treatment of Estrogen Receptor Positive Breast Cancer” (J Med Chem, 2018):
Converted amounts (≈) assume the structure as drawn. Each block holds one molecule with its values, some of them ahead of it. The source made the active and inactive calls. The calls are words filed in the database; no cut-off is given here.

Legend:
MCF7 [1] = assay: Antitumor activity against human MCF7 cells xenografted in NOD SCID gamma mouse assessed as change in tumor volume at 60 mg/kg, po 5 days per week for 48 days post tumor implantation measured 7 hrs post last dose; assay type: functional
Mus musculus [2] = assay: Downregulation of progesterone receptor mRNA level in NOD SCID gamma mouse xenografted with human MCF7 cells at 60 mg/kg, po 5 days per week for 48 days post tumor implantation measured 7 hrs post last dose by RT-PCR method; assay type: functional, organism-based
[3] = Equilibrium solubility in pH 6.8 buffer at 1 mM after 16 hrs by HPLC based shake flask method; assay type: physicochemical
[4] = Oral bioavailability in Sprague-Dawley rat at 3 mg/kg; assay type: ADME, organism-based; conditions: in vivo
[5] = Volume of distribution at steady state in Sprague-Dawley rat at 1 mg/kg, iv or 3 mg/kg, po; assay type: ADME, organism-based; conditions: in vivo, read-out: Vdss
[6] = AUC in NOD SCID gamma mouse xenografted with human MCF7 cells at 20 mg/kg, po qd for 19 days; assay type: ADME, organism-based; conditions: in vivo
[7] = Clearance in Beagle dog at 0.3 mg/kg, iv or 10 mg/kg, po; assay type: ADME, organism-based, Canis lupus familiaris; conditions: in vivo
Canis familiaris [8] = assay: Dose normalized AUC (0 to t) in Beagle dog at 0.3 mg/kg, iv; assay type: ADME, organism-based, Canis lupus familiaris; conditions: in vivo
Canis familiaris [9] = assay: Dose normalized Cmax in Beagle dog at 10 mg/kg, po; assay type: ADME, organism-based, Canis lupus familiaris; conditions: in vivo
Canis familiaris [10] = assay: Clearance in Beagle dog at 0.3 mg/kg, iv or 10 mg/kg, po relative to hepatic blood flow; assay type: ADME, organism-based, Canis lupus familiaris; conditions: in vivo
Canis familiaris [11] = assay: Dose normalized AUC (0 to t) in Beagle dog at 30 mg/kg, po; assay type: ADME, organism-based, Canis lupus familiaris; conditions: in vivo
[12] = Elimination half life in Sprague-Dawley rat at 1 mg/kg, iv or 3 mg/kg, po; assay type: ADME, organism-based; conditions: in vivo, read-out: beta t1/2 (converted)
[13] = Oral bioavailability in C57BL/6 mouse at 3 mg/kg; assay type: ADME, organism-based; conditions: in vivo
[14] = Cmax in C57BL/6 mouse at 3 mg/kg, po; assay type: ADME, organism-based; parameters: dose 3 mg/kg, route oral; conditions: in vivo
Rattus norvegicus [15] = assay: Dose normalized Cmax in Sprague-Dawley rat at 3 mg/kg, po; assay type: ADME, organism-based; conditions: in vivo
Rattus norvegicus [16] = assay: Dose normalized Cmax in Wistar Han rat at 300 mg/kg, po; assay type: ADME, organism-based; conditions: in vivo
Rattus norvegicus [17] = assay: Dose normalized AUC (0 to t) in Sprague-Dawley rat at 1 mg/kg, iv; assay type: ADME, organism-based; conditions: in vivo
Rattus norvegicus [18] = assay: Dose normalized AUC (0 to t) in Sprague-Dawley rat at 3 mg/kg, po; assay type: ADME, organism-based; conditions: in vivo
Rattus norvegicus [19] = assay: Dose normalized AUC (0 to t) in Wistar Han rat at 100 mg/kg, po; assay type: ADME, organism-based; conditions: in vivo
[20] = Volume of distribution at steady state in Beagle dog at 0.3 mg/kg, iv or 10 mg/kg, po; assay type: ADME, organism-based, Canis lupus familiaris; conditions: in vivo, read-out: Vdss
Canis familiaris [21] = assay: Dose normalized Cmax in Beagle dog at 30 mg/kg, po; assay type: ADME, organism-based, Canis lupus familiaris; conditions: in vivo
[22] = AUC in Beagle dog at 10 mg/kg, po; assay type: ADME, organism-based, Canis lupus familiaris; conditions: in vivo
Rattus norvegicus [23] = assay: Dose normalized Cmax in Wistar Han rat at 30 mg/kg, po; assay type: ADME, organism-based; conditions: in vivo
Rattus norvegicus [24] = assay: Dose normalized Cmax in Wistar Han rat at 100 mg/kg, po; assay type: ADME, organism-based; conditions: in vivo
[25] = Cmax in NOD SCID gamma mouse xenografted with human MCF7 cells at 20 mg/kg, po qd for 19 days; assay type: ADME, organism-based; parameters: dose 20 mg/kg, route oral; conditions: in vivo
Mus musculus [26] = assay: Downregulation of progesterone receptor mRNA level in NOD SCID gamma mouse xenografted with human MCF7 cells at 20 mg/kg, po qd for 48 days post tumor implantation measured 7 hrs post last dose by RT-PCR method; assay type: functional, organism-based
MCF7 [27] = assay: Antiproliferative activity against human MCF7 cells after 6 days in presence of estradiol by CellTiter-Glo assay; conditions: MCF7, 144 h
Mus musculus [28] = assay: In vivo inhibition of ER protein level in NOD SCID gamma mouse xenografted with human MCF7 cells at 20 mg/kg, po qd for 48 days post tumor implantation measured 7 hrs post last dose by Western blot method relative to control; assay type: functional
[29] = Elimination half life in Beagle dog at 0.3 mg/kg, iv or 10 mg/kg, po; assay type: ADME, organism-based, Canis lupus familiaris; conditions: in vivo, read-out: beta t1/2 (converted)
[30] = Clearance in C57BL/6 mouse at 1 mg/kg, iv or 3 mg/kg, po; assay type: ADME, organism-based; conditions: in vivo
Rattus norvegicus [31] = assay: Dose normalized AUC (0 to t) in Wistar Han rat at 30 mg/kg, po; assay type: ADME, organism-based; conditions: in vivo
[32] = Oral bioavailability in Beagle dog at 10 mg/kg; assay type: ADME, organism-based, Canis lupus familiaris; conditions: in vivo
MCF7 [33] = assay: Antitumor activity against human MCF7 cells xenografted in NOD SCID gamma mouse assessed as change in tumor volume at 20 mg/kg, po qd for 48 days post tumor implantation measured 7 hrs post last dose; assay type: functional
Rattus norvegicus [34] = assay: Dose normalized AUC (0 to t) in Wistar Han rat at 300 mg/kg, po; assay type: ADME, organism-based; conditions: in vivo
[35] = Clearance in Sprague-Dawley rat at 1 mg/kg, iv or 3 mg/kg, po; assay type: ADME, organism-based; conditions: in vivo
Canis familiaris [36] = assay: Dose normalized AUC (0 to t) in Beagle dog at 10 mg/kg, po; assay type: ADME, organism-based, Canis lupus familiaris; conditions: in vivo
Estrogen receptor = biological target: T1, Estrogen receptor (Homo sapiens, UniProt P03372); assay: Induction of selective estrogen receptor alpha degradation in human MCF7 cells harboring TK-ERE-Luc assessed as reduction in estradiol-induced transcriptional activity after 24 hrs by luciferase reporter gene assay; assay type: cell-based
T1 sequence (P03372 whole entry): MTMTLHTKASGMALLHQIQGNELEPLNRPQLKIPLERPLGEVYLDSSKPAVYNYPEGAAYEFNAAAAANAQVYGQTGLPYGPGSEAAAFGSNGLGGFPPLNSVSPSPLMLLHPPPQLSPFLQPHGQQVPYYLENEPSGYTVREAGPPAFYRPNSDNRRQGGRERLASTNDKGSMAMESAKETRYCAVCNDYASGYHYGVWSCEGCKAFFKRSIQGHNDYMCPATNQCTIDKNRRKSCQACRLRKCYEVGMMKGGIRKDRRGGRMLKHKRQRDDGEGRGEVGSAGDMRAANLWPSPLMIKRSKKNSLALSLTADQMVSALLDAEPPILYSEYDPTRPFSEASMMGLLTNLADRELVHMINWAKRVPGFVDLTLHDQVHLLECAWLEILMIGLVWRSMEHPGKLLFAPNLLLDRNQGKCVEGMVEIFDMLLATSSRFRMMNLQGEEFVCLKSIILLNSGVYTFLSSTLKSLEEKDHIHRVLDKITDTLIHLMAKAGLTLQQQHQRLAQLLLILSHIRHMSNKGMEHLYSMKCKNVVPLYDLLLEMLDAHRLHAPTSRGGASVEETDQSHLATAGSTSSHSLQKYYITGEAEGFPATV

[37] = Cmax in Sprague-Dawley rat at 3 mg/kg, po; assay type: ADME, organism-based; parameters: dose 3 mg/kg, route oral; conditions: in vivo

solubility thermodynamic at 16 h, 1000 µM [3]: < 5 µM
Compound: O=C(/C=C/c1ccc(Oc2c(-c3ccc(O)cc3)sc3cc(O)ccc23)cc1)NCCC(F)(F)F

solubility thermodynamic at 16 h, 1000 µM [3]: < 5 µM
Compound: NC(=O)/C=C/c1ccc(Oc2c(-c3ccc(O)cc3)sc3cc(O)ccc23)cc1

bioavailability [4]: 33%
IC50 (Estrogen receptor): 1820 nM
bioavailability [13]: 19%
Cmax [14]: 505 nM
Cmax [37]: 847 nM
clearance [30]: 22 mL/min/kg
clearance [35]: 24 mL/min/kg
Compound: O=C(O)/C=C/c1ccc(Oc2c(-c3ccc(F)cc3)sc3cc(O)ccc23)cc1

solubility thermodynamic at 16 h, 1000 µM [3]: > 1000 µM
Compound: O=C(O)CCc1ccc(Oc2c(-c3ccc(O)cc3)sc3cc(O)ccc23)cc1

Continued, molecule first:

Compound: CC/C(=C(\c1ccccc1)c1ccc(OCCN(C)C)cc1)c1ccccc1 [TAMOXIFEN]
T/C (MCF7 [1]): 24%
Activity (Mus musculus [2]): Active

Compound: CC(F)(F)c1cc(F)ccc1-c1sc2cc(O)ccc2c1Oc1ccc(/C=C/C(=O)O)cc1 [LSZ-102]
bioavailability [4]: 33%
Vd [5]: 0.9 L/kg
AUC at 456 h [6]: 3.23 µM·h
clearance [7]: 5 mL/min/kg
AUCt/dose (Canis familiaris [8]): 7713 nM·h
Cmax/dose (Canis familiaris [9]): 268 nM
CL (Canis familiaris [10]): 15%
AUCt/dose (Canis familiaris [11]): 624 nM·h
half-life [12]: 1.4 h
bioavailability [13]: 12%
Cmax [14]: 492 nM
Cmax/dose (Rattus norvegicus [15]): 240 nM
Cmax/dose (Rattus norvegicus [16]): 334 nM
AUCt/dose (Rattus norvegicus [17]): 1849 nM·h
AUCt/dose (Rattus norvegicus [18]): 620 nM·h
AUCt/dose (Rattus norvegicus [19]): 1940 nM·h
Vd [20]: 0.3 L/kg
Cmax/dose (Canis familiaris [21]): 123 nM
AUC [22]: 9.62 µM·h
Cmax/dose (Rattus norvegicus [23]): 1259 nM
Cmax/dose (Rattus norvegicus [24]): 513 nM
Cmax [25]: 1070 nM
Activity (Mus musculus [26]): Active
IC50 (MCF7 [27]): 1.7 nM
inhibition in vivo at 20 mg/kg (Mus musculus [28]): 63%
half-life [29]: 4.1 h
clearance [30]: 28 mL/min/kg
AUCt/dose (Rattus norvegicus [31]): 2117 nM·h
bioavailability [32]: 12%
T/C (MCF7 [33]): 2.4%
AUCt/dose (Rattus norvegicus [34]): 3405 nM·h
clearance [35]: 19 mL/min/kg
AUCt/dose (Canis familiaris [36]): 962 nM·h

Compound: Cn1cnc(/C=C/c2ccc(Oc3c(-c4ccc(O)cc4)sc4cc(O)ccc34)cc2)c1
solubility thermodynamic at 16 h, 1000 µM [3]: 9 µM (≈ 3.96 µg/mL)

Compound: O=C(O)/C=C/c1ccc(Oc2c(-c3ccc(F)cc3C(F)(F)F)sc3cc(O)ccc23)cc1
bioavailability [13]: 30%
Cmax [14]: 1500 nM
clearance [30]: 18 mL/min/kg

Compound: Oc1ccc(-c2sc3cc(O)ccc3c2Oc2ccc(/C=C/c3c[nH]cn3)cc2)cc1
solubility thermodynamic at 16 h, 1000 µM [3]: < 5 µM

Compound: CC/C(=C(/c1ccc(/C=C/C(=O)O)cc1)c1ccc2[nH]ncc2c1)c1ccc(F)cc1Cl [BRILANESTRANT]
bioavailability [13]: 42%
Cmax [14]: 1240 nM
clearance [30]: 16 mL/min/kg

Compound: Oc1ccc(-c2sc3cc(O)ccc3c2Oc2ccc(/C=C/c3nnn[nH]3)cc2)cc1
IC50 (Estrogen receptor): 219 nM
solubility thermodynamic at 16 h, 1000 µM [3]: 190 µM (≈ 81.4 µg/mL)
